In ChEMBL document CHEMBL5034013, “Discovery of VNRX-7145 (VNRX-5236 Etzadroxil): An Orally Bioavailable β-Lactamase Inhibitor for Enterobacterales Expressing Ambler Class A, C, and D Enzymes” (J Med Chem, 2021):

Tests used:
[1] = Metabolic stability in CD-1 mouse liver S9 fraction assessed as half life measured at 3 uM after 2 hrs in presence of NADPH by UPLC-MS/MS analysis; format: ADME, subcellular; details: s9, 2 h
[2] = Apparent permeability across basolateral to apical side in human Caco-2 cells at 5 uM measured after 2 hrs by LC-MS/MS method; format: ADME, cell-based; details: caco-2, 2 h
[3] = Drug metabolism in human hepatocytes assessed as (R)-2-hydroxy-3-propionamido-3,4-dihydro-2H-benzo[e][1,2]oxaborinine-8-carboxylic acid formation at 2 to 20 uM incubated for 240 mins by UPLC-HR-MS/MS analysis; format: ADME, cell-based, Hepatocyte; details: 4 h, dose 2-20 µM
[4] = Efflux ratio of apparent permeability from basolateral to apical side over apical to basolateral side in human Caco-2 cells at 5 uM measured after 2 hrs by LC-MS/MS method; format: ADME, cell-based; details: caco-2, 2 h
[5] = Metabolic stability in Beagle dog liver S9 fraction assessed as half life at 3 uM measured after 2 hrs in absence of NADPH by UPLC-MS/MS analysis; format: ADME, subcellular, Canis lupus familiaris; details: s9, 2 h
[6] = Drug metabolism in Beagle dog hepatocytes assessed as (R)-2-hydroxy-3-propionamido-3,4-dihydro-2H-benzo[e][1,2]oxaborinine-8-carboxylic acid formation at 2 to 20 uM incubated for 240 mins by UPLC-HR-MS/MS analysis; format: ADME, cell-based, Canis lupus familiaris, Hepatocyte; details: 4 h, dose 2-20 µM
[7] = Metabolic stability in Cynomolgus monkey liver S9 fraction assessed as half life at 3 uM measured after 2 hrs in presence of NADPH by UPLC-MS/MS analysis; format: ADME, subcellular, Macaca fascicularis; details: s9, 2 h
[8] = Metabolic stability in Sprague-Dawley rat liver S9 fraction assessed as half life at 3 uM measured after 2 hrs in presence of NADPH by UPLC-MS/MS; format: ADME, subcellular; details: s9, 2 h
[9] = Metabolic stability in CD-1 mouse plasma assessed as half life at 3 uM measured after 2 hrs by UPLC-MS/MS analysis; format: ADME, cell-free
[10] = Metabolic stability in human intestinal S9 fraction assessed as half life at 3 uM measured after 2 hrs in absence of NADPH by UPLC-MS/MS analysis; format: ADME, subcellular, Intestine; details: s9, 2 h
[11] = Metabolic stability in Sprague-Dawley rat plasma assessed as half life at 3 uM measured after 2 hrs by UPLC-MS/MS analysis; format: ADME, cell-free
[12] = Drug metabolism in rabbit hepatocytes assessed as (R)-2-hydroxy-3-propionamido-3,4-dihydro-2H-benzo[e][1,2]oxaborinine-8-carboxylic acid formation at 2 to 20 uM incubated for 240 mins by UPLC-HR-MS/MS analysis; format: ADME, cell-based, Oryctolagus cuniculus, Hepatocyte; details: 4 h, dose 2-20 µM
[13] = Metabolic stability in Sprague-Dawley rat intestinal S9 fraction assessed as half life at 3 uM measured after 2 hrs in presence of NADPH by UPLC-MS/MS analysis; format: ADME, subcellular, Intestine; details: s9, 2 h
[14] = Metabolic stability in CD-1 mouse intestinal S9 fraction assessed as half life measured at 3 uM after 2 hrs in absence of NADPH by UPLC-MS/MS analysis; format: ADME, subcellular, Intestine; details: s9, 2 h
[15] = Metabolic stability in Cynomolgus monkey intestinal S9 fraction assessed as half life at 3 uM measured after 2 hrs in presence of NADPH by UPLC-MS/MS analysis; format: ADME, subcellular, Macaca fascicularis, Intestine; details: s9, 2 h
[16] = Metabolic stability in Beagle dog intestinal S9 fraction assessed as half life at 3 uM measured after 2 hrs in absence of NADPH by UPLC-MS/MS analysis; format: ADME, subcellular, Canis lupus familiaris, Intestine; details: s9, 2 h
[17] = Metabolic stability in Cynomolgus monkey intestinal S9 fraction assessed as half life at 3 uM measured after 2 hrs in absence of NADPH by UPLC-MS/MS analysis; format: ADME, subcellular, Macaca fascicularis, Intestine; details: s9, 2 h
[18] = Metabolic stability in Beagle dog liver S9 fraction assessed as half life at 3 uM measured after 2 hrs in presence of NADPH by UPLC-MS/MS analysis; format: ADME, subcellular, Canis lupus familiaris; details: s9, 2 h
[19] = Metabolic stability in human intestinal S9 fraction assessed as half life at 3 uM measured after 2 hrs in presence of NADPH by UPLC-MS/MS analysis; format: ADME, subcellular, Intestine; details: s9, 2 h
[20] = Apparent permeability across apical to basolateral side in human Caco-2 cells at 5 uM measured after 2 hrs by LC-MS/MS method; format: ADME, cell-based; details: caco-2, 2 h
[21] = Drug metabolism in rat hepatocytes assessed as (R)-2-hydroxy-3-propionamido-3,4-dihydro-2H-benzo[e][1,2]oxaborinine-8-carboxylic acid formation at 2 to 20 uM incubated for 240 mins by UPLC-HR-MS/MS analysis; format: ADME, cell-based, Hepatocyte; details: 4 h, dose 2-20 µM
[22] = Metabolic stability in Sprague-Dawley rat intestinal S9 fraction assessed as half life at 3 uM measured after 2 hrs in absence of NADPH by UPLC-MS/MS analysis; format: ADME, subcellular, Intestine; details: s9, 2 h
[23] = Metabolic stability in CD-1 mouse liver S9 fraction assessed as half life measured at 3 uM after 2 hrs in absence of NADPH by UPLC-MS/MS analysis; format: ADME, subcellular; details: s9, 2 h
[24] = Metabolic stability in human liver S9 fraction assessed as half life at 3 uM measured after 2 hrs in presence of NADPH by UPLC-MS/MS analysis; format: ADME, subcellular; details: s9, 2 h
[25] = Drug metabolism in Cynomolgus monkey hepatocytes assessed as (R)-2-hydroxy-3-propionamido-3,4-dihydro-2H-benzo[e][1,2]oxaborinine-8-carboxylic acid formation at 2 to 20 uM incubated for 240 mins by UPLC-HR-MS/MS analysis; format: ADME, cell-based, Macaca fascicularis, Hepatocyte; details: 4 h, dose 2-20 µM
[26] = Metabolic stability in Cynomolgus monkey plasma assessed as half life at 3 uM measured after 2 hrs by UPLC-MS/MS analysis; format: ADME, cell-free, Macaca fascicularis
[27] = Metabolic stability in Cynomolgus monkey liver S9 fraction assessed as half life at 3 uM measured after 2 hrs in absence of NADPH by UPLC-MS/MS analysis; format: ADME, subcellular, Macaca fascicularis; details: s9, 2 h
[28] = Metabolic stability in Beagle dog plasma assessed as half life at 3 uM measured after 2 hrs by UPLC-MS/MS analysis; format: ADME, cell-free, Canis lupus familiaris
[29] = Metabolic stability in Sprague-Dawley rat liver S9 fraction assessed as half life at 3 uM measured after 2 hrs in absence of NADPH by UPLC-MS/MS analysis; format: ADME, subcellular; details: s9, 2 h
[30] = Drug metabolism in mouse hepatocytes assessed as (R)-2-hydroxy-3-propionamido-3,4-dihydro-2H-benzo[e][1,2]oxaborinine-8-carboxylic acid formation at 2 to 20 uM incubated for 240 mins by UPLC-HR-MS/MS analysis; format: ADME, cell-based, Hepatocyte; details: 4 h, dose 2-20 µM
[31] = Metabolic stability in Beagle dog intestinal S9 fraction assessed as half life at 3 uM measured after 2 hrs in presence of NADPH by UPLC-MS/MS analysis; format: ADME, subcellular, Canis lupus familiaris, Intestine; details: s9, 2 h
[32] = Metabolic stability in human plasma assessed as half life at 3 uM measured after 2 hrs by UPLC-MS/MS analysis; format: ADME, cell-free

t1/2 [1]: 1.2 min
Papp [2]: 29.4 10^-6 cm/s
Drug metabolism [3]: Metabolite_Detected
Ratio [4]: 3.2
t1/2 [5]: 0.7 min
Drug metabolism [6]: Metabolite_Detected
t1/2 [7]: 0.8 min
t1/2 [8]: 2.3 min
t1/2 [9]: 4.6 min
t1/2 [10]: 3.3 min
t1/2 [11]: 1.6 min
Drug metabolism [12]: Metabolite_Detected
t1/2 [13]: 3.9 min
t1/2 [14]: 1.1 min
t1/2 [15]: 11.2 min
t1/2 [16]: 119 min
t1/2 [17]: 10.1 min
t1/2 [18]: 0.5 min
t1/2 [19]: 2.9 min
Papp [20]: 9.22 10^-6 cm/s
Drug metabolism [21]: Metabolite_Detected
t1/2 [22]: 4 min
t1/2 [23]: 1.3 min
t1/2 [24]: 1 min
Drug metabolism [25]: Metabolite_Detected
t1/2 [26]: 22 min
t1/2 [27]: 0.9 min
t1/2 [28]: 43.9 min
t1/2 [29]: 2.8 min
Drug metabolism [30]: Metabolite_Detected
t1/2 [31]: 49 min
t1/2 [32]: 10.7 min
SMILES: CCC(=O)N[C@H]1Cc2cccc(C(=O)OCOC(=O)C(CC)CC)c2OB1O [LEDABORBACTAM ETZADROXIL]
